The record followed here is paper PMC10609883, “Design, Synthesis and Biological Evaluation of Novel N-Arylpiperazines Containing a 4,5-Dihydrothiazole Ring” (Pharmaceuticals, 2023).

The test system of data set [1] is MDA-MB231. Description: Cytotoxic activity, sulforhodamine B assay, MDA-MB231. It is filed as cell-based. Particulars: Homo sapiens, MDA-MB-231, MDA-MB231 breast cancer cells, 72 h. Here is the method: (§1) Media, serum and antibiotics for cell culture were from Lonza (Basel, Switzerland). MCF7 (ER+, PR+, HER2−), SKBR3 (ER−, […], HER2+) and MDA-MB231 (ER−, PR−, HER2−) human breast cancer cells; MCF10A non-cancer breast epithelial cells; LNCAP (androgen sensitive), DU145 and PC3 (androgen independent) human prostate cancer cells; and PNT1 non-cancer prostate epithelial cells were available in our laboratory. MCF7, SKBR3 and MDA-MB231 cells were cultured in DMEM, supplemented with 10% FBS, 2 mM glutamine, 100 units/mL penicillin and 100 units/mL streptomycin. MCF10A cells were cultured in MEBM and supplemented with 0.4% BPE, 0.1% hEGF, 0.1%, Insulin, 0.1% Hydrocortisone and 0.1% GA-1000. LNCAP and DU145 cells were cultured in RPMI and supplemented with 10% FBS, 2 mM glutamine, 100 units/mL penicillin and 100 units/mL streptomycin. PC3 and PNT1 cells were cultured in DMEM-F12 (1:1), supplemented with 10% FBS, 2 mM glutamine, 100 units/mL penicillin and 100 units/mL streptomycin. Cultures were maintained in a humidified atmosphere of 95% air and 5% CO2 at 37 °C. Treatment with compounds were carried out in culture conditions. For cell survival assay, cells were fixed with 50% trichloroacetic acid for at least 2 h at 4 °C, washed with distilled and de-ionized water, air-dried and stained for 30 min with 0.4% sulforhodamine B in 1% acetic acid. Unbound dye was removed, and 10 mM tris-HCl solution (pH 7.5) was added to dissolve the protein-bound dye. Cell survival was assessed by optical density determination at 510 nm using a microplate reader.
(§2) Figure 2 Effect of novel thiazolinylphenyl-piperazines (2a–c) on BCa cell viability. MCF7, SKBR3 and MDA cells were treated with rising concentrations (5 μM, 10 μM, 25 μM, 50 μM, 100 μM) of 2a–c. After 72 h, cell viability was assessed by sulforhodamine B assay. The results were reported as percentage of viable cells compared to positive control (untreated cells that were considered to represent the maximum viability of 100%). Data represent the mean ± SD of at least three independent triplicate experiments. * denotes statistically significant values compared with positive control (* adjp < 0.05, ** adjp < 0.01, *** adjp < 0.001).
as §2, with “Figure 3” for “Figure 2”, “thiazolinylphenyl-piperazines (3a–c)” for “thiazolinylphenyl-piperazines (2a–c)”, “on PC3 and MDA” for “on BCa”, “viability. Cells” for “viability. MCF7, SKBR3 and MDA cells”, “of 3a-c.” for “of 2a–c.”, “< 0.001, **** adjp < 0.0001).” for “< 0.001).”
A general note: In SRB staining, fixed cells bind dye roughly in proportion to their protein.

Data set [2] relates to DU-145. As to the kind of experiment: Cytotoxic activity, sulforhodamine B assay, DU-145. The format is cell-based. Particulars: Homo sapiens, DU-145 prostate cancer cells, 72 h. Here is the method:
as §1
Figure 1 Effect of novel thiazolinylphenyl-piperazines (2a–c) on PCa cell viability. LNCAP, DU145 and PC3 cells were treated with rising concentrations (5 μM, 10 μM, 25 μM, 50 μM, 100 μM) of 2a–c. After 72 h, cell viability was assessed by sulforhodamine B assay. The results were reported as percentage of viable cells compared to positive control (untreated cells that were considered to represent the maximum viability of 100%). […]

Data set [3] has as its system LNCAP. Description: Cytotoxic activity, sulforhodamine B assay, LNCAP. The format is cell-based, human. Particulars: 72 h, LNCAP prostate cancer cells. Here is the method:
as §1
as §2, with “Figure 1” for “Figure 2”, “on PCa” for “on BCa”, “viability. LNCAP, DU145” for “viability. MCF7, SKBR3”, “and PC3” for “and MDA”, “< 0.01).” for “< 0.01, *** adjp < 0.001).”

Data set [4] addresses T1, 5-HT1A receptor (Rattus norvegicus, UniProt P19327).
T1 construct: supplemented with 0.1% ascorbate, 5 mM MgCl2 and 80 µg of hippocampal membrane suspension; from tissue; host or cells: rat hippocampus membranes (Sprague Dawley)
T1 sequence (P19327 1-422): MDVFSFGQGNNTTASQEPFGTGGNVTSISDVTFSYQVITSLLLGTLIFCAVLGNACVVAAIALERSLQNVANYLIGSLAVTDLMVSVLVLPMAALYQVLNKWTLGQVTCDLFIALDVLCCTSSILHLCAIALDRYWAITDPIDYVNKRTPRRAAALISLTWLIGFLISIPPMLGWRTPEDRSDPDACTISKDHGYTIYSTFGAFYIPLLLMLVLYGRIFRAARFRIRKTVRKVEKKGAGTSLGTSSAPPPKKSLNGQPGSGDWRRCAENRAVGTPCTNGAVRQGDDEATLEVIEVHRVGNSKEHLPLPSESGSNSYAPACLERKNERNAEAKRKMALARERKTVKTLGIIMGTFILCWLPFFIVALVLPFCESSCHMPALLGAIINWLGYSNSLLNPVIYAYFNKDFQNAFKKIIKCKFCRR
Description: Competitive 5-HT1A binding assay, [3H]8-OH-DPAT, hippocampal membranes. Details: species or system Sprague Dawley rats. The conditions noted are these: 5-HT1A receptor binding affinity; 1 nM [3H]8-OH-DPAT, hippocampal membrane; Cheng–Prusoff; read-out: Ki (µM, 95% CI). Here is the method: Brains were rapidly removed and placed on ice. Hippocampi (for 5-HT1A assays) and frontal cortices (for 5-HT2A assays) were dissected on a Petri dish. […] The homogenate was centrifuged at 48,000× g at 4 °C for 15 min. […] The centrifugation and suspension steps were repeated twice.
Non-specific binding was determined with 10 μM serotonin. The final DMSO concentration in the assay was 5%. […] Each well was washed with 2 mL of 50 mM Tris-HCl (pH 7.4) buffer to separate bound ligands from free ones. Plates were left to dry overnight. […] Binding curves were fitted with one site non-linear regression.

The test system of data set [5] is MCF-7. As to the kind of experiment: Cytotoxic activity, sulforhodamine B assay, MCF-7. The format is cell-based. Particulars: Homo sapiens, MCF7, MCF-7 breast cancer cells, 72 h. Here is the method:
as §1
(§3) Figure 2 Effect of novel thiazolinylphenyl-piperazines (2a–c) on BCa cell viability. MCF7, SKBR3 and MDA cells were treated with rising concentrations (5 μM, 10 μM, 25 μM, 50 μM, 100 μM) of 2a–c. After 72 h, cell viability was assessed by sulforhodamine B assay. The results were reported as percentage of viable cells compared to positive control (untreated cells that were considered to represent the maximum viability of 100%). […]

Data set [6] relates to SKBR-3. Description: Cytotoxic activity, sulforhodamine B assay, SKBR-3. The conditions noted are these: Homo sapiens, SK-BR-3, SKBR-3 breast cancer cells, 72 h. The format is cell-based. Here is the method: as §1, §3
The test system of data set [7] is PC-3. As to the kind of experiment: Cytotoxic activity, sulforhodamine B assay, PC-3. It is filed as cell-based. The conditions noted are these: Homo sapiens, PC-3 prostate cancer cells, 72 h. Here is the method:
as §1
Figure 1 Effect of novel thiazolinylphenyl-piperazines (2a–c) on PCa cell viability. LNCAP, DU145 and PC3 cells were treated with rising concentrations (5 μM, 10 μM, 25 μM, 50 μM, 100 μM) of 2a–c. After 72 h, cell viability was assessed by sulforhodamine B assay. […]
Figure 3 Effect of novel thiazolinylphenyl-piperazines (3a–c) on PC3 and MDA cell viability. […] After 72 h, cell viability was assessed by sulforhodamine B assay. […]

“And” between values parts separate entries of the source, which are not always exact repeats. Equal values may be shown once.

For orientation: IC50 means the concentration needed to halve the response being measured. A higher IC50 goes with weaker potency. Usually Ki stands for the equilibrium dissociation constant of an inhibitor or competing ligand from its target. For `c1ccc(N2CCNCC2)c(C2=NCCS2)c1` [2a, 2-(2-(Piperazin-1-yl)phenyl)-4,5-dihydrothiazole], the IC50 in data set [1] was 31.4 ± 5.1 µM; in data set [2], 66.6 ± 7.3 µM; in data set [3] (Homo sapiens, LNCaP), 67.2 ± 13.1 µM; in data set [5] it was 14.7 ± 1.9 µM; in data set [6], 28.2 ± 4.1 µM. For the same compound, the Ki in data set [4] was 2.29 µM and 2.3 µM.

In the case of `c1cc(C2=NCCS2)cc(N2CCNCC2)c1` [2b, 2-(3-(Piperazin-1-yl)phenyl)-4,5-dihydrothiazole], the IC50 worked out at 40 ± 9.8 µM in data set [1]; 66.6 ± 9.4 µM in data set [2]; 48.5 ± 7.3 µM in data set [3] (Homo sapiens, LNCaP); 15.9 ± 1.8 µM in data set [5]; 27.6 ± 5.6 µM in data set [6]. For the same compound, in data set [4], the Ki turned out to be 0.412 µM.

For `c1cc(N2CCNCC2)ccc1C1=NCCS1` [2c, 2-(4-(Piperazin-1-yl)phenyl)-4,5-dihydrothiazole], the IC50 amounted to 36.3 ± 7.7 µM in data set [1]; 47.7 ± 11.7 µM in data set [2]; 32 µM in data set [3] (Homo sapiens, LNCaP); 31.9 ± 9.2 µM in data set [3]; 19.5 ± 2.3 µM in data set [5]; 27.7 ± 4.8 µM in data set [6]. For the same compound, the Ki in data set [4] worked out at 49.5 µM.

Broadly, the melting point is the temperature, or range, at which the solid turns liquid. Regarding `CC(=O)N1CCN(c2ccccc2C2=NCCS2)CC1` [3a, 1-(4-(2-(4,5-Dihydrothiazol-2-yl)phenyl)piperazin-1-yl)ethan-1-one], the melting point lay within 90 to 92 °C. In addition, in data set [1], the IC50 came out at 23.3 ± 3.4 µM. The IC50 in data set [7] was 73.3 ± 10.3 µM.

For `CC(=O)N1CCN(c2cccc(C3=NCCS3)c2)CC1` [3b, 1-(4-(3-(4,5-Dihydrothiazol-2-yl)phenyl)piperazin-1-yl)ethan-1-one], the IC50 in data set [1] is 34.6 ± 5.4 µM; in data set [7], 65 ± 7.4 µM.

Consider `CC(=O)N1CCN(c2ccc(C3=NCCS3)cc2)CC1` [3c, 1-(4-(4-(4,5-Dihydrothiazol-2-yl)phenyl)piperazin-1-yl)ethan-1-one], for which the IC50 in data set [1] was 47.1 ± 6.7 µM; in data set [7] it was 32.1 ± 10.2 µM.
